Experimental data published in patent publication US5763406A, “Method for the treatment of conditions caused by herpes virus infections” (Carlbiotech, Ltd. A/S, priority 1991, dated 1998).

What was measured:
[1] = Systemic or local effects reported by treated patients; format: in vivo, human
[2] = test system: HSV-1 infection; assay: Patients' earlier aciclovir treatment of HSV-1 outbreaks (case history); format: in vivo, human
Protocol: The patient had experienced similar lesions during the past 18 years, primarily during the winter months. They would usually experience 3-5 outbreaks each winter lasting 10-14 days before complete resolution. One year ago, they applied aciclovir topical to the lesions and on that occasion, resolution occured in 6-8 days.
When the lesions are treated with a 5% aciclovir ointment, topically, resolution is normally achieved within 6-7 days. […] On this occasion, […] denied any recent use of any topical or systemic therapy.
The patient had experienced outbreaks from HSV-1 […]. Five years ago the patient started to use aciclovir topically on a regular basis, but switched to take aciclovir orally 11/2 years ago. Normally the outbreaks would be on the lips, but occasionally the outbreaks would also appear on the neck and on the buccal mucosa. Without any form of medication, complete resolution would happen within 2-3 weeks and complete resolution by using aciclovir orally would happen within 1-2 weeks.

| SMILES | systemic or local effects ([1]; Example 1, 10 mg/ml topical three times daily) | systemic or local effects ([1]; Example 4, 10 mg/ml topical four times in 36 hours) | systemic or local effects ([1]; Example 5, 10 mg/ml topical two times daily) | time to resolution ([2]; Example 1 patient, aciclovir topical one year ago) [days] | time to resolution ([2]; Example 2 patient, 5% aciclovir ointment, topically) [days] | effect of very early treatment of the lesions ([2]; Example 2 patient, aciclovir) | effect from the use of aciclovir ([2]; Example 4 patient) | time to complete resolution ([2]; Example 5 patient, aciclovir orally) |
| --- | --- | --- | --- | --- | --- | --- | --- | --- |
| C[C@@H](N)C(=O)N[C@@H](CO)C(=O)N[C@H](C(=O)N[C@H](C(=O)N[C@H](C(=O)N[C@@H](CC(N)=O)C(=O)N[C@@H](Cc1ccc(O)cc1)C(=O)N[C@H](C(N)=O)[C@@H](C)O)[C@@H](C)O)[C@@H](C)O)[C@@H](C)O [(D-Ala^1)-Peptide-T Amide, D-Ala-Ser-Thr-Thr-Thr-Asn-Tyr-Thr-NH2] | did not report any systemic or local effects other than those noted above | did not experience any systemic or local effects other than those noted above | did not observe any systemic or local effects other than those noted above | – | – | – | – | – |
| Nc1nc2c(ncn2COCCO)c(=O)[nH]1 [aciclovir] | – | – | – | 6 to 8 | 6 to 7 | has not been able to stop the vesicles developing into painful ulcers although the ulcers tend to decrease in size | never experienced any effect | 1-2 weeks |
